Test results from PMC12021657, “Rapid traversal of vast chemical space using machine learning-guided docking screens” (Nature Computational Science, 2025).

Columns and labels:
[1] = target: T1, Human A2AR (Homo sapiens, UniProt P29274); test: Human A2AR competition radioligand binding ([3H]-ZM241385, HeLa-A2A membranes); conditions: for Ki: xlsx sheet A2AR_Displacement, read-out: Ki (A2AR) printed in column Displacement at 20 uM (%); for A2AR radioligand displacement at 20 µM (%): 20 µM compound, mean ± SEM of two technical replicates
T1 construct: expressed in transfected cells; host or cells: HeLa-A2A cell line (membranes prepared in house, lot A003/14-04-2019)
Procedure: (§1) Screening compounds (Supplementary Tables 10 and 12) were purchased from Enamine (compound purity >90%, which was confirmed by liquid chromatography−mass spectrometry and ^1H NMR spectroscopy for identified ligands; Supplementary Figs. 19–30). Human D2R competition binding experiments were carried out in polypropylene 96-well plates. Each well contained 20 µg of membranes from a CHO-D2R #S20 cell line (protein concentration of 4,322 µg ml^−1), 1.5 nM [^3H]-spiperone (54.3 Ci mmol^−1, 1 mCi ml^−1, PerkinElmer NET1187250UC) and the compound studied. Non-specific binding was determined in the presence of 10 µM sulpiride (Sigma Aldrich S8010). The reaction mixture (250 µl per well) was incubated at 25 °C for 120 min, after which 200 µl was transferred to a GF/C 96-well plate (Millipore) pretreated with 0.5% PEI and treated with binding buffer (50 mM Tris-HCl, 1 mM EDTA, 5 mM MgCl2, 5 mM KCl, 120 mM NaCl, pH 7.4). The reaction mixture was filtered and washed 4 times with 250 µl wash buffer (50 mM Tris-HCl, 0.9% NaCl, pH 7.4) before the addition of 30 μl Universol. The final measurement was performed in a microplate beta scintillation counter (Microbeta Trilux, PerkinElmer). Human A2AR competition binding experiments were carried out in a multiscreen GF/C 96-well plate (Millipore) pretreated with binding buffer (Tris-HCl 50 mM, EDTA 1 mM, MgCl2 10 mM, 2 U ml^−1 adenosine deaminase, pH 7.4). Each well was incubated with 5 μg of membranes from the HeLa-A2A cell line and prepared in our laboratory (lot A003/14-04-2019, protein concentration 2,058 μg ml^−1), 1 nM [^3H]-ZM241385 (50 Ci mmol^−1, 1 mCi ml^−1, ARC-ITISA 0884), and the compounds studied and standards. Non-specific binding was determined in the presence of NECA 50 μM (Sigma E2387). The reaction mixture (total volume of 200 μl per well) was incubated at 25 °C for 30 min, then filtered and washed 4 times with 250 μl wash buffer (Tris-HCl 50 mM, EDTA 1 mM, MgCl2 10 mM, pH 7.4), and measured in a microplate beta scintillation counter (Microbeta Trilux, PerkinElmer). Unless stated otherwise, three independent experiments were carried out to calculate Ki values.

[2] = target: T2, Human D2R (Homo sapiens, UniProt P14416); test: Human D2R competition radioligand binding ([3H]-spiperone, CHO-D2R #S20 membranes); conditions: 10 µM compound, mean ± SEM of two technical replicates; for inhibition at 10 µM: 2 h, read-out: D2R radioligand displacement at 10 µM (%)
T2 construct: expressed in transfected cells
Procedure: as §1

T1 sequence (P29274 whole entry): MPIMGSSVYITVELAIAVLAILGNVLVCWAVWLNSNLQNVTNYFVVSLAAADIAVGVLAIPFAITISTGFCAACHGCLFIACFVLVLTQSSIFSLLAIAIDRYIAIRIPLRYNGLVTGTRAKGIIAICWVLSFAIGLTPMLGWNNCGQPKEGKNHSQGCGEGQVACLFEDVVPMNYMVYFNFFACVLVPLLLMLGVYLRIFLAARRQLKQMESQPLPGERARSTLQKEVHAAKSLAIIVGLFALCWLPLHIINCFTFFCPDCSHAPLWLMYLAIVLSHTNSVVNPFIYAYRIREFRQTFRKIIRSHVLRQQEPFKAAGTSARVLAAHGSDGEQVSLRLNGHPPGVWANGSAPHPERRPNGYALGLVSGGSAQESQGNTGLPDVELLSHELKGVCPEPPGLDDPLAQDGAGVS
T2 sequence (P14416 whole entry): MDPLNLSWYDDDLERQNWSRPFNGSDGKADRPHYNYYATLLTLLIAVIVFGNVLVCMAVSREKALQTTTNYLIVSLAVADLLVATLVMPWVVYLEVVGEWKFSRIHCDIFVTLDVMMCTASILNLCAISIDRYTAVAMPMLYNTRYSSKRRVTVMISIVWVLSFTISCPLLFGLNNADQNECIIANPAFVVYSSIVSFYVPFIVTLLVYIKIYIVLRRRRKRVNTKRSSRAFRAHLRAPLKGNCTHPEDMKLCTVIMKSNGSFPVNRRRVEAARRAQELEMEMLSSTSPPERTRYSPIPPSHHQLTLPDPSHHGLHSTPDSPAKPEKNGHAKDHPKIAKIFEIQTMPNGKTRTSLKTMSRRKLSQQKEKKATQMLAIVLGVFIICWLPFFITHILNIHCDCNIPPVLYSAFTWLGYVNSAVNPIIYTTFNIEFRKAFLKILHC

| Ki [1] | D2R radioligand displacement at 10 µM (%) [2] | inhibition at 10 µM [2] | SMILES | A2AR radioligand displacement at 20 µM (%) [1] |
| --- | --- | --- | --- | --- |
| – | 5 ± 3% | 5 ± 3% | FC(F)(F)c1ccnc(N2CCN(C3CCC3)CC2)c1 [Z1348398263, c1cnc(cc1C(F)(F)F)N2CCN(CC2)C3CCC3] | – |
| – | 10 ± 3% | 10 ± 3% | OC(Cc1cccc(Cl)c1)CN1CCC=C(c2ccco2)C1 (stereo not shown) [Z2102774071, c1cc(cc(c1)Cl)CC(CN2CCC=C(C2)c3ccco3)O] | – |
| – | 7 ± 1% | 7 ± 1% | Cn1cc(-c2ccc(CN3CC[C@@H](Oc4ccccc4)C3)s2)cn1 [Z2629646171, Cn1cc(cn1)c2ccc(s2)CN3CC[C@H](C3)Oc4ccccc4] | – |
| – | 17 ± 4% | 17 ± 4% | c1csc(CCN2CCC(Oc3ccc(C4CC4)cn3)C2)c1 (stereo not shown) [Z2694200197, c1cc(sc1)CCN2CCC(C2)Oc3ccc(cn3)C4CC4] | – |
| – | 1 ± 1% | 1 ± 1% | c1cnc(CCN2CCC(c3cn[nH]c3)CC2)cn1 [Z2833584438, c1cnc(cn1)CCN2CCC(CC2)c3c[nH]nc3] | – |
| – | 5 ± 1% | 5 ± 1% | Cc1[nH]cnc1CN1CCC(Oc2cc(F)cc(F)c2)C1 (stereo not shown) [Z3516846214, Cc1c(nc[nH]1)CN2CCC(C2)Oc3cc(cc(c3)F)F] | – |
| – | 1 ± 1% | 1 ± 1% | Cc1cc(CC(O)CN2CCc3c(ncn3C3CCC3)C2)ccc1F (stereo not shown) [Z3516919089, Cc1cc(ccc1F)CC(CN2CCc3c(ncn3C4CCC4)C2)O] | – |
| – | 28 ± 1% | 28 ± 1% | OC(CN1CCC(n2ncc3ccccc32)CC1)c1cccc(Cl)n1 (stereo not shown) [Z3651347041, c1ccc2c(c1)cnn2C3CCN(CC3)CC(c4cccc(n4)Cl)O] | – |
| – | 4 ± 1% | 4 ± 1% | Clc1cccc(CCN2CC(c3ncnc4ccccc34)C2)c1 [Z3806926084, c1ccc2c(c1)c(ncn2)C3CN(C3)CCc4cccc(c4)Cl] | – |
| – | 3 ± 1% | 3 ± 1% | Cc1ccccc1-n1cc(CNC2COc3ccccc3C2)cn1 (stereo not shown) [Z8185092078, Cc1ccccc1n2cc(cn2)CNC3Cc4ccccc4OC3] | – |
| – | 6 ± 2% | 6 ± 2% | Cc1cccc(CN[C@H]2C[C@H](Oc3ccccc3)C2)c1F [Z8185092308, Cc1c(c(ccc1)CN[C@H]2C[C@@H](C2)Oc3ccccc3)F] | – |
| – | 4 ± 3% | 4 ± 3% | Cc1ccc(C(O)CN2CCC3(Cc4ccccc4C3)C2)c(C)c1 (stereo not shown) [Z8185092353, Cc1ccc(c(c1)C)C(CN2CCC3(C2)Cc4ccccc4C3)O] | – |
| – | 5 ± 3% | 5 ± 3% | Fc1ccc(O[C@H]2CCN(Cc3cnc4ccc(Br)cn34)C2)cc1 [Z8185092492, c1cc(ccc1O[C@H]2CCN(C2)Cc3cnc4n3cc(cc4)Br)F] | – |
| – | 4 ± 1% | 4 ± 1% | Clc1cnn(CCN2CCC(OCc3ccc(Br)cc3)CC2)c1 [Z8185092665, c1cc(ccc1COC2CCN(CC2)CCn3cc(cn3)Cl)Br] | – |
| – | 24 ± 1% | 24 ± 1% | Clc1ccc(C2CN=C(NCc3cc(OC4CCC4)ccn3)N2)cc1 (stereo not shown) [Z8185092666, c1cc(ccc1C2CN=C(N2)NCc3cc(ccn3)OC4CCC4)Cl] | – |
| – | 3 ± 1% | 3 ± 1% | O[C@@H](CN1CCc2cc(Br)sc2C1)c1ccccc1F [Z8185092668, c1ccc(c(c1)[C@H](CN2CCc3cc(sc3C2)Br)O)F] | – |
| – | 2 ± 1% | 2 ± 1% | Fc1cccc2nc(CNCc3ccccc3-n3cccn3)sc12 [Z8185092672, c1ccc(c(c1)CNCc2nc3cccc(c3s2)F)n4cccn4] | – |
| – | 2 ± 3% | 2 ± 3% | CC(C)(C)c1c[nH]c(CN2CCC(Cc3nccs3)C2)n1 (stereo not shown) [Z8185092674, CC(C)(C)c1c[nH]c(n1)CN2CCC(C2)Cc3nccs3] | – |

The next lines start with the compound.

| SMILES | Ki [1] | D2R radioligand displacement at 10 µM (%) [2] | inhibition at 10 µM [2] | A2AR radioligand displacement at 20 µM (%) [1] |
| --- | --- | --- | --- | --- |
| Cc1cccc(CC(N)C(=O)Nc2nc3c(Br)cc(F)cc3[nH]2)c1 (stereo not shown) [Compound 3, Cc1cccc(c1)CC(C(=O)Nc2[nH]c3cc(cc(c3n2)Br)F)N] | 2.5 µM | – | – | – |
| O=C(CN1CC[C@H](Oc2ccccc2)C1)c1c[nH]c2nc(Cl)ccc12 [Compound 4, c1ccc(cc1)O[C@H]2CCN(C2)CC(=O)c3c[nH]c4c3ccc(n4)Cl] | 1.4 µM | – | – | – |
| CCOC(=O)c1cccc2[nH]c(NC(=O)C(N)Cc3ccco3)nc12 (stereo not shown) [Compound 6, CCOC(=O)c1cccc2c1nc([nH]2)NC(=O)C(Cc3ccco3)N] | 1.3 µM | – | – | – |
| c1ccc([C@H]2C[C@H](NCc3ccccc3-n3cccn3)C2)cc1 [Z1973963178, c1ccc(cc1)[C@H]2C[C@@H](C2)NCc3c(cccc3)n4nccc4] | – | 1 ± 2% | 1 ± 2% | – |
| Fc1ccc([C@H]2C[C@H](NCc3cnn(-c4ccccc4)n3)C2)cc1 [Z2213086620, c1ccc(cc1)n2nc(cn2)CN[C@H]3C[C@@H](C3)c4ccc(cc4)F] | – | 27 ± 1% | 27 ± 1% | – |
| NC(=NCc1nc(-c2ccccc2)n[nH]1)Nc1ccccn1 [Z2518713795, c1ccc(cc1)c2nc([nH]n2)CN=C(N)Nc3ccccn3] | – | – | – | 23±3% |
| O=C(Nc1ncccn1)C1CCN(CC(O)C2CCC2)CC1 (stereo not shown) [Z3292775568, c1cnc(nc1)NC(=O)C2CCN(CC2)CC(C3CCC3)O] | – | – | – | 1±2% |
| c1ccc(NC2CCN(Cc3cccc4ncnn34)C2)cc1 (stereo not shown) [Z3310096494, c1ccc(cc1)NC2CCN(C2)Cc3cccc4n3ncn4] | – | 1 ± 2% | 1 ± 2% | – |
| Clc1nc2c(cc1CN1CC[C@@H](Oc3ccccc3)C1)COCC2 [Z3529190238, c1ccc(cc1)O[C@@H]2CCN(C2)Cc3cc4c(nc3Cl)CCOC4] | – | 1 ± 1% | 1 ± 1% | – |
| c1ccc(C2CC(NCc3cc4ncccc4[nH]3)C2)cc1 (stereo not shown) [Z3532611366, c1ccc(cc1)C2CC(C2)NCc3cc4c([nH]3)cccn4] | – | 24 ± 1% | 24 ± 1% | – |
| Cc1cc(NC(=O)c2cccn2CCN2CCOCC2)ns1 [Z3591989733, Cc1cc(ns1)NC(=O)c2cccn2CCN3CCOCC3] | – | – | – | 19±1% |
| CCc1ccc(CNCCc2c[nH]c3c(OC)cccc23)nc1 [Z3765568162, CCc1ccc(nc1)CNCCc2c[nH]c3c2cccc3OC] | – | – | – | 16±4% |
| O=C(NCc1nccc(=O)[nH]1)C1CCCN1Cc1ccccc1 (stereo not shown) [Z4219981720, c1ccc(cc1)CN2CCCC2C(=O)NCc3[nH]c(=O)ccn3] | – | – | – | 6±4% |
| O=c1[nH]c(NCC2CCN(CCc3ccccc3)C2)nc2ccsc12 (stereo not shown) [Z5332306614, c1ccc(cc1)CCN2CCC(C2)CNc3[nH]c(=O)c4c(n3)ccs4] | – | – | – | 8±1% |
| CCc1ccnc(NCC2CN(Cc3ccccc3)CC2C)n1 (stereo not shown) [Z5471612810, CCc1ccnc(n1)NCC2CN(CC2C)Cc3ccccc3] | – | – | – | 2±1% |
| Cc1nc(NC(=O)C(N)Cc2cccc(Br)n2)[nH]c1C (stereo not shown) [Z6382061841, Cc1c(nc([nH]1)NC(=O)C(Cc2cccc(n2)Br)N)C] | – | – | – | 2±2% |
| Brc1ccn2c(CN[C@H]3C[C@H](Oc4ccccc4)C3)cnc2c1 [Z8185092056, c1ccc(cc1)O[C@H]2C[C@@H](C2)NCc3n4c(nc3)cc(cc4)Br] | – | 2 ± 2% | 2 ± 2% | – |
| Cc1ccc(C2CC(NCCn3ncc4ccccc43)C2)cc1 (stereo not shown) [Z8185092514, Cc1ccc(cc1)C2CC(C2)NCCn3c4ccccc4cn3] | – | 23 ± 1% | 23 ± 1% | – |
| Cc1ccc(CCN2C[C@@H]3CN(C(=O)c4cn5c(n4)CC(C)CC5)C[C@@H]3C2)cc1 (stereo partly shown) [Z8185092530, Cc1ccc(cc1)CCN2C[C@@H]3CN(C[C@@H]3C2)C(=O)c4cn5c(n4)CC(CC5)C] | – | 1 ± 2% | 1 ± 2% | – |
| c1ccc(CC2CN(Cc3cc4ncccc4s3)C2)cc1 [Z8185092667, c1ccc(cc1)CC2CN(C2)Cc3cc4c(s3)cccn4] | – | 12 ± 3% | 12 ± 3% | – |
| c1ccc(C2CN=C(NCCc3cn4c(n3)CCCC4)N2)cc1 (stereo not shown) [Z8185092671, c1ccc(cc1)C2CN=C(N2)NCCc3cn4c(n3)CCCC4] | – | 5 ± 2% | 5 ± 2% | – |
